Read-outs that look alike come from different tables or passages of the source.
Assays:
[1] = tested on: HS-Sultan anaplastic non-Hodgkin lymphoma; settings: read-out: IC50, proliferation; cited from earlier work
LoVo colon cancer = settings: read-out: IC50, proliferation; cited from earlier work
[2] = tested on: MM xenograft tumors (LAGκ-1A); settings: 14 d, cited from earlier work
[3] = tested on: RPMI8226 multiple myeloma cancer; settings: read-out: IC50, proliferation; cited from earlier work
[4] = tested on: A2780 ovarian cancer cells; settings: read-out: IC50, proliferation; cited from earlier work
H460 = settings: read-out: IC50, proliferation; cited from earlier work
transplanted tumor = settings: cited from earlier work; for proteasome inhibition in brain tissue: any time point
[5] = biological target: chymotrypsin-like proteasome activity (Homo sapiens, UniProt P28074); settings: read-out: IC50, chymotrypsin-like proteasome inhibition; cited from earlier work
PC3 prostate cancer = settings: read-out: IC50, proliferation; cited from earlier work
[6] = tested on: MCF7 breast carcinoma cells; assay: Live/dead cell count, MCF7 cells; assay type: cell-based, human; settings: 100 nM bortezomib
Experimental: Culture Collection; ATCC) were cultured according to ATCC specifications: HeLa.S3 cervical adenocarcinoma, MCF7 breast adenocarcinoma, MDA-MB-231 breast adenocarcinoma (representing triple negative breast cancer), and RPMI 8226 myeloma. The cells were grown in 24 or 12-well cell culture plates. When the cells reached about 60% confluency (surface-growing HeLa.S3,MCF7 and MDA-MB-231) or a density of about 7×10^5 (suspension-growing RPMI 8226), the inhibitors dissolved in DMSO or the solvent (DMSO) diluted in respective culture medium were added and the cells were further cultured for additional 48 hours. […] The final concentration of the solvent was 1% (vol/vol). The number of live and dead cells after the treatment was approximated with calcein AM and ethidium homodimer (LiveDead test, Invitrogen) according to manufacturer's protocol, or by a Trypan Blue exclusion assay. […] Fluorescence of calcein and DNA-bound ethidium homodimer was measured with Fluoroskan Ascent plate reader, at 485 nm (excitation)/538 nm (emission) and 530 nm/619 nm, respectively. […] Alternatively, after cell treatment the medium was removed, the surface growing cells were overlaid with Trypan Blue solution, and the colorless (live) and blue-colored (dead) cells were counted under the inverted microscope.

[7] = tested on: T1, human 20S proteasome, ChT-L peptidase; assay: ChT-L peptidase activity of purified human 20S proteasome (Suc-LLVY-MCA); assay type: biochemical
T1 construct: purchased Enzo LifeSciences
Experimental: Human purified proteasome complexes were purchased from Enzo LifeSciences or Boston Biochemicals (19S complex). BODIPY-casein (Invitrogen/Molecular Probes) was used as a model protein substrate, with increasing fluorescence of BODIPY labeled peptide products of degradation monitored for up to 8 hours at 37° C. The peptidase activity of the enzyme was measured as arbitrary intensity units of the released fluorescent group 7-amino-4-methylcoumarin (AMC) from peptide substrates, as described. […] Proteasome substrates, rapamycin, its derivatives, and competing peptides were stocked in DMSO and diluted 100-fold in the reaction mixtures. The Rpt5 and PA200 C-terminal peptides were synthesized in the Departmental Peptide Synthesis Core using the standard SPPS chemistry. To activate the latent 20S proteasome, 0.005% (final concentration) of sodium dodecyl sulfate (SDS) was used. […] The fluorescence of products was monitored every 2 minutes with a Fluoroskan Ascent plate reader. Reaction rates were calculated from smoothed linear segment of kinetic curves using OriginPro 8.6 (OriginLabs, Northampton, Mass.). For the determination of an inhibition type, at least six distinct substrate concentrations and two inhibitor concentrations were used. The kinetic parameters of inhibition were analyzed in terms of the Michaelis-Menten formalism using the enzyme kinetic module of SigmaPlot v.12 (Systat Software, Inc, San Jose, Calif.) to perform the respective calculations. […]
The in vitro assay for testing the ChT-L peptidase activity of the purified human 20S proteasome was performed as described above.

RPMI 8226 myeloma cells = assay: Live/dead cell count, RPMI 8226 myeloma cells; assay type: cell-based, human; settings: 5 nM, 48 hrs
Experimental: (§1) Culture Collection; ATCC) were cultured according to ATCC specifications: HeLa.S3 cervical adenocarcinoma, MCF7 breast adenocarcinoma, MDA-MB-231 breast adenocarcinoma (representing triple negative breast cancer), and RPMI 8226 myeloma. The cells were grown in 24 or 12-well cell culture plates. When the cells reached about 60% confluency (surface-growing HeLa.S3,MCF7 and MDA-MB-231) or a density of about 7×10^5 (suspension-growing RPMI 8226), the inhibitors dissolved in DMSO or the solvent (DMSO) diluted in respective culture medium were added and the cells were further cultured for additional 48 hours. […] The final concentration of the solvent was 1% (vol/vol). The number of live and dead cells after the treatment was approximated with calcein AM and ethidium homodimer (LiveDead test, Invitrogen) according to manufacturer's protocol, or by a Trypan Blue exclusion assay. In short, the cells after the treatment were washed three times with PBS and overlaid (surface-growing) or mixed (suspension-growing) with 4 microM calcein AM and 2 microM ethidium homodimer in PBS. Fluorescence of calcein and DNA-bound ethidium homodimer was measured with Fluoroskan Ascent plate reader, at 485 nm (excitation)/538 nm (emission) and 530 nm/619 nm, respectively. The cell counts were approximated using standard curves of live and digitonin-killed cells prepared for each strain. Alternatively, after cell treatment the medium was removed, the surface growing cells were overlaid with Trypan Blue solution, and the colorless (live) and blue-colored (dead) cells were counted under the inverted microscope.

[8] = tested on: MDA-MB-231 (triple-negative breast cancer) cells; assay: Viability/growth of MDA-MB-231 cells; assay type: cell-based, human; settings: Homo sapiens, MDA-MB-231; 24 hours, drug alone; read-out: EC50 (concentration required to exclude 50% of cells)
Experimental: The cells were grown in 24 or 12-well cell culture plates. […] The final concentration of the solvent was 1% (vol/vol). The number of live and dead cells after the treatment was approximated with calcein AM and ethidium homodimer (LiveDead test, Invitrogen) according to manufacturer's protocol, or by a Trypan Blue exclusion assay. In short, the cells after the treatment were washed three times with PBS and overlaid (surface-growing) or mixed (suspension-growing) with 4 microM calcein AM and 2 microM ethidium homodimer in PBS. […] The cell counts were approximated using standard curves of live and digitonin-killed cells prepared for each strain. Alternatively, after cell treatment the medium was removed, the surface growing cells were overlaid with Trypan Blue solution, and the colorless (live) and blue-colored (dead) cells were counted under the inverted microscope.

[9] = tested on: HeLa.S3 cervical carcinoma cells; assay: Live/dead cell count, HeLa.S3 cells; assay type: cell-based, human; settings: 48 hrs
Experimental: as §1

CC(C)C[C@H](NC(=O)[C@@H](NC(=O)c1cccc(-c2ccccc2)n1)[C@@H](C)O)B(O)O [Delanzomib]
IC50 [1]: 8.2 nM
IC50 (LoVo colon cancer): 11.3 nM
tumors smaller than control ([2]; twice weekly 3 mg/kg i.v.): approximately 8 times
tumors smaller than control ([2]; twice weekly 10 mg/kg orally): ~12 times
IC50 [3]: 5.6 nM
IC50 [4]: 13.7 nM
IC50 (H460): 34.2 nM
proteasome inhibition in brain tissue (transplanted tumor): No proteasome inhibition is detected
maximum apoptotic signal versus bortezomib (transplanted tumor; caspase-3 and 7 activity in tumor, equiactive doses): 2.5 fold
IC50 [5]: 3.8 nM
IC50 (PC3 prostate cancer): 22.2 nM

CC(C)C[C@H](NC(=O)[C@H](Cc1ccccc1)NC(=O)c1cnccn1)B(O)O [bortezomib]
live cell count, of the control [6]: about 53%
remaining ChT-L activity ([7]; 5 nM BZ alone): 83%
remaining ChT-L activity ([7]; 50 nM bortezomib alone): 68%
proteasome inhibition in brain tissue (transplanted tumor): No proteasome inhibition is detected
incidence of CR (complete tumor regression) (transplanted tumor; at MTD of 1.2 mg/kg intravenously): 50%
maximally tolerated dose (MTD) (transplanted tumor; intravenously): 1.2 mg/kg
dead cells (RPMI 8226 myeloma cells): 18%
remaining live cells (RPMI 8226 myeloma cells; 100% = live cells in DMSO control): 10%
EC50 [8]: 745 nM
dead cells, of total cell count ([9]; up to 100 nM bortezomib): up to 16%
changes in cell proliferation ([9]; up to 100 nM): did not induce significant changes

Source: patent publication US9918968B2, “Rapamycin analogs targeting proteasome function in the treatment of cancer” (THE BOARD OF REGENTS OF THE UNIVERSITY OF TEXAS SYSTEM, priority 2013, dated 2018)
